The source of these data is patent US5639775A, “4-[4'-piperodinyl or 3'-pirrolidinyl] substituted imidazoles as H3 -receptor antagonists and therapeutic uses thereof” (The University of Toledo, priority 1994, dated 1997).

One data set deals with male albino CF-1 mice. Kind of data set: behavioral effects: sleep induced by (R)α-methylhistamine in mice. The class given is in vivo. The protocol: The overall strategy to show central nervous system antagonist activity was to challenge effects of the agonist (R)α-methylhistamine. Therefore, the first objective was to establish a dose response curve for behavioral effects of (R)α-methylhistamine. […] Saline or (R)α-methylhistamine in saline was injected i.p. in a volume≤0.4 ml. […] Animals were scored for the presence (1) or absence (0) of the behavior and the results were reported as the accumulated score for a 30 minute period (maximum score=9).
To assess the effects of antagonists, they were administered with the (R)α-methylhistamine in saline.

Data set [1] deals with Glycine. As to the kind of experiment: NOVASCREEN receptor selectivity assay (inhibitory amino acids). The class given is binding. As to conditions: 10^-5 M. An excerpt: (§1) Bolded values represent inhibition of fifty percent or greater.
Another data set concerns Calcium. Kind of data set: NOVASCREEN receptor selectivity assay (channel proteins, Nifedipine reference). As to conditions: 10^-5 M. Format: binding.
From the text: as §1

For data set [2], the system named is Glycine. Kind of data set: NOVASCREEN receptor selectivity assay (excitatory amino acids). Format: binding. The note with it: 10^-5 M.
From the text: as §1

The format of data set [3] is binding. The note with it: 10^-5 M; w-Conotoxin reference.
For data set [4], the system named is H3 receptors in the cortex. Kind of data set: blood-brain barrier penetration by ex vivo binding of [3H]-Nα-methylhistamine to cortical homogenate of injected rats. Format: in vivo, rat. The protocol:
Blood-brain barrier penetration in rats was assessed by an ex vivo binding procedure. Young adult male Long-Evans rats were injected i.p. with saline or H3 antagonists in saline. At various times after injection animals were sacrificed, the cortex was removed, homogenized in 50 mM Na/K-phosphate buffer, pH 7.4, and the binding of 1 nM [^3 H]-N^[…] -methylhistamine was measured using 400 μg protein of the homogenate. Nonspecific binding was accounted for by the inclusion of excess thioperamide in some samples. Under these conditions, the binding was approximately 90% specific.

Data set [5] is described as follows: toxicity observed in all testing to date. Format: in vivo. The note with it: even at high doses.
For a further data set, the target named is T1, histamine H3 receptor (Rattus norvegicus, UniProt Q9QYN8).
T1 construct: from tissue
Kind of data set: inhibition of binding of [3H]-N-alpha-methylhistamine to rat brain membranes. The note with it: for IC50: rat brain membranes, 3HNα-methylhistamine as radioligand. The method, then: A series of compounds were prepared and tested for their histamine H3 receptor antagonist activity. The antagonist activity of the compounds was detected by observing inhibition of (^3 H)-N-(alpha)methylhistamine activity on rat brain membranes.
The various compounds were tested for the ability to bind to the histamine H3 receptor. A binding assay in a rat brain membrane preparation, based on inhibition of binding of [^3 H]-N-alpha-methylhistamine using excess unlabeled alpha-methylhistamine to account for nonspecifc binding, was developed.

The next data set deals with Kainate. The note with it: reference compound; cited from earlier work.
In data set [6] the target is Glycine. As to conditions: read-out: Reference Ki; reference compound; inhibitory; cited from earlier work.
In another data set the test system is rats. As to conditions: cited from earlier work.
Another data set relates to dogs. As to conditions: high dose, repeated dose; cited from earlier work.
Setting [7] is: 2, 5, and 10 mg/kg i.p., 15 min after injection.

Read-outs that look alike come from different tables or passages of the source.

T1 sequence (Q9QYN8 whole entry): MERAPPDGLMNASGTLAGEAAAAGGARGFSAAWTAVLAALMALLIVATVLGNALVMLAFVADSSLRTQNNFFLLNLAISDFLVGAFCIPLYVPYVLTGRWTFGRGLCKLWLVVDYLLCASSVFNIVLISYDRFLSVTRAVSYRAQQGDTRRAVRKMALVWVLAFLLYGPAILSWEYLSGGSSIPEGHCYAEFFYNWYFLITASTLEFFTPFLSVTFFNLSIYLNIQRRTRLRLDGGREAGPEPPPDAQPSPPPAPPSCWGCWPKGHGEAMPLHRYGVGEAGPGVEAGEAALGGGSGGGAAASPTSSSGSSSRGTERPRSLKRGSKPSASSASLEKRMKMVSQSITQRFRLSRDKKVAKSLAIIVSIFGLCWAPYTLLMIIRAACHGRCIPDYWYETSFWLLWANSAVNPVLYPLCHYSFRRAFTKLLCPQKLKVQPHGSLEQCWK

Regarding `C[C@@H](N)Cc1c[nH]cn1` [(R)α-methylhistamine, reference compound], the effect on sleeping result in the data set with male albino CF-1 mice (i.p., one hour after injection, also evident at 30 minutes) is listed as “dose-dependent (range of 15 to 35 mg/kg) increase in sleeping”. `O=C(CCCCC1CCCCC1)N1CCC(c2c[nH]cn2)CC1` [Compound 1, 4-(1-Cyclohexylvaleroyl-4-Piperidyl) 1H-Imidazole]: the “Initial Percent Inhibition (Average; N = 2)” value stood at 17.4% with Glycine [1], 8.1% with Calcium, 1.8% in the data set with Glycine [2] and 1.9% in [3]. Moreover, the “effect on sleep induced by R(-)-α-methylhistamine” value with male albino CF-1 mice (25 mg/kg (R)α-methylhistamine) is listed as “inhibited the soporific effect”. Besides, in the data set on male albino CF-1 mice (in vivo assays), the “effectiveness as an H3-receptor antagonist in vivo” value is “effective as an H3 -receptor antagonist”. In addition, in data set [4] (50 and 70 mg/kg i.p., one hour after injection), the “penetration of the blood-brain barrier” value is “penetrates the blood-brain barrier”. Further, in data set [4] (taking into account the difference in affinity), the “penetration of the blood-brain barrier compared with thioperamide” value is reported as “at least as well as thioperamide”. Also, in [5], the toxicity observed entry is “no toxicity”.

The IC50 is the point on the concentration scale where inhibition reaches its midpoint. Regarding `O=C(Cc1ccccc1)N1CCC(c2c[nH]cn2)CC1` [Compound 4], on histamine H3 receptor (Table I first part, read-out: IC50), the IC50 was 1400 ± 437 nM. Consider `O=C(CC12CC3CC(CC(C3)C1)C2)N1CCC(c2cnc[nH]2)CC1` [Compound 8], for which the IC50 result on histamine H3 receptor (Table I second part) is “inactive”.

With `O=C(C(C1CCCCC1)C1CCCCC1)N1CCC(c2cnc[nH]2)CC1` [Compound 9], the IC50 entry at histamine H3 receptor (Table I second part) is “inactive”.

`CC(C)(C)C(=O)N1CCC(c2c[nH]cn2)CC1` [Compound 14]: the IC50 entry at histamine H3 receptor (Table I second part) was “inactive”.

`O=C(C1CCCCC1)N1CCC(c2c[nH]cn2)CC1` [Compound 41]: the IC50 result at histamine H3 receptor (Table I first part) was “inactive”.

For `Cn1cnc(C2CCN(C(=O)c3ccccc3)CC2)c1` [Compound 42], the IC50 result at histamine H3 receptor (Table I first part) is “inactive”. On to `O=C(c1ccccc1)N1CCC(c2cn(C(=O)c3ccccc3)cn2)CC1` [Compound 43], for which, on histamine H3 receptor (Table I first part), the half-inhibitory concentration (IC50) result is “inactive”.

Take `CC(C)(C)C(=O)N1CCC(c2cn(C(=O)C(C)(C)C)cn2)CC1` [Compound 44]: the IC50 result on histamine H3 receptor (Table I first part) is “inactive”.

`CC(C)(C)OC(=O)N1CCC(c2cn(C(=O)OC(C)(C)C)cn2)CC1` [Compound 45]: the IC50 result at histamine H3 receptor (Table I first part) is “inactive”.

For `O=C(c1ccccc1)N1CCC(c2cn(Cc3ccccc3)cn2)CC1` [Compound 46], at histamine H3 receptor (Table I first part), the half-maximal inhibitory concentration (IC50) result is “inactive”. On to `N#CN=C(Oc1ccccc1)N1CCC(c2c[nH]cn2)CC1` [Compound 47], for which the “binding to the H3-receptor (in words)” value at histamine H3 receptor is “ineffective”. For the compound `N#CN=C(NC1CCCCC1)N1CCC(c2c[nH]cn2)CC1` [Compound 48], the “binding to the H3-receptor (in words)” value on histamine H3 receptor is recorded as “ineffective”. The IC50 entry at histamine H3 receptor (Table I first part) was “inactive”. For the compound `N#CN=C(Nc1ccc(-c2c[nH]cn2)cc1)NC1CCCCC1` [Compound 50], the “binding to the H3-receptor (in words)” value at histamine H3 receptor was “ineffective”. The half-maximal inhibitory concentration (IC50) entry at histamine H3 receptor (Table I second part) was “inactive”. A word on the Ki: it is the equilibrium dissociation constant of an inhibitor or competing ligand from its target. Consider `C=C(C)[C@H]1CN[C@H](C(=O)O)[C@H]1CC(=O)O` [Kainic Acid], for which the Ki on Kainate was 24.9 nM.

Take `O=C1C[C@@H]2OCC=C3CN4CC[C@]56c7ccccc7N1[C@H]5[C@H]2[C@H]3C[C@H]46` [Strychinine Nitrate]: the Ki at Glycine [6] is 33.5 nM. For the compound `S=C(NC1CCCCC1)N1CCC(c2cnc[nH]2)CC1` [Thioperamide, reference compound], in the data set with male albino CF-1 mice (30 mg/kg (R)α-methylhistamine), the “effect on sleep induced by R(-)-α-methylhistamine” value is listed as “inhibit the soporific effect”. For the same compound, the “behavior with antagonist alone” value with male albino CF-1 mice (in the absence of the α-methylhistamine H3 receptor agonist) is “very active, exhibiting normal behaviors”. Also, in data set [4] (setting [7]), the “binding of [3H]-Nα-methylhistamine to H3 receptors in the cortex” value was “decreased the binding” and the “penetration of the blood-brain barrier” value is given as “able to penetrate the blood-brain barrier”. Further, the “dose needed in vivo to inhibit histamine release from the brain” value with rats is “relatively high doses are required”. On to `O=C(CCCCC1CCCCC1)N1CCC(c2c[nH]cn2)CC1` [compound 2016], for which the “effect on soporific effect of R(-)-alphamethylhistamine” value in the data set with male albino CF-1 mice (mice, both drugs administered peripherally) is given as “reverses the soporific effect”.

Take `C/N=C(\S)NCCSCc1[nH]cnc1C` [metiamide]: in the data set with dogs, the “proportion of dogs that died acutely with pulmonary edema and pleural effusion” value is given as less than 10%.
